# Experimental data reported in a melting point compilation (Tetko et al.; mined from patent text by program, amines drawn as free bases though some values may be those of a salt).
row,Compound,melting point [°C]
1,CCCCCN(CCC12CC3CC(CC(C3)C1)C2)C(=O)NCCCCc1ccncc1,74.1 to 78.1
2,CC(C)(C)c1cc(=O)o[nH]1,110 to 115
3,CCC1(CCCCCBr)C(=O)Nc2ccc(F)cc21 (stereo not given),82 to 83
4,CCC(CCCCc1ccccc1)(CC(=O)O)S(=O)(=O)c1ccc(OC)cc1 (stereo not given),44 to 46
5,COc1ccc(NCC(=O)N2CCC(Cc3ccc(F)cc3)CC2)cc1,141 to 143
6,CN(C)CCCOc1ccc(-c2nnc(CSCCOc3ccccc3)n2-c2ccccc2)cc1,120 to 123
7,O=C(Nc1ccccc1-c1nnc(CSCCOc2ccccc2)o1)N1CCCC1,184 to 185
8,Cc1c(C(=O)c2ccc3ccccc3c2)cccc1[N+](=O)[O-],100 to 102
9,C=CC(CC(O)C(CC(C)C)NC(=O)C(Cc1c[nH]cn1)NC(=O)C(Cc1ccccc1)Cc1ccccc1)C(C)C (stereo not given),120
10,C1=C(/C=C/c2ccccc2)CCN(Cc2c[nH]c3ccccc23)C1,191 to 193
11,CCN(CC)C(=O)CCc1nc(-c2ccc([N+](=O)[O-])cc2)nc2ccccc12,168
12,O=c1[nH]nc(-c2ccccc2)c(-c2ccccc2)c1-c1ccccc1,290 to 292
13,COC(=O)C(=O)c1ccc(OCCOc2ccccc2F)cc1,112 to 113
14,CCCCc1ncc(CC(=O)NC(CCc2ccccc2)C(=O)O)n1Cc1ccccc1Cl (racemic),119 to 120
15,CCOC(=O)CN(c1ccncc1F)n1ccc2ccccc21,86 to 87
16,CS(=O)(=O)N1C(=O)[C@H](C2CC2)[C@H]2[C@@H]1CCN2C(=O)OCc1ccccc1 (relative stereo),144 to 150
17,CCC(=CC(N)C(=O)O)CP(=O)(O)O (stereo not given),176
18,CC(C)(C)CC(C)(C)c1cc(-n2nc3ccc(-c4ccsc4)cc3n2)c(O)c(C(C)(C)c2ccccc2)c1,147 to 149
19,CC(=O)OCCC1Cc2c(C)c(OCc3ccccc3)c(C)c(C)c2O1 (racemic),80 to 82
20,O=S(CCCn1cnc(-c2ccc(F)cc2)c1-c1ccncc1)c1ccccc1 (stereo not given),146 to 148
21,c1ccc(-c2nn3c(c2-c2cccc4nsnc24)CCC3)nc1,140 to 142
22,CC1(C)CCC(O)(c2ccc(=O)[nH]c2)CC1,210 to 211
23,CC(C)(C)OC(=O)COC1CCN(C(=O)[C@]2(C)CCCN2C(=O)c2ccc(C#N)cc2)CC1,180 to 182

row,Compound,melting point [°C]
1,CC(C)(CO)CNC(=O)c1nn(C2CCCCO2)cc1NC(=O)c1ccccn1 (stereo not given),189 to 190
2,c1ccc(N2CCN(c3ccccc3)C2Oc2ccc(C3N(c4ccccc4)CCN3c3ccccc3)cc2)cc1,218 to 221
3,O=C(c1ccc(F)cc1)C1CCN(CCCO)CC1,107 to 109
4,c1ccc(-c2nc(CSc3nc4cccc5c4n3CCC5)cs2)cc1,116 to 118
5,Cc1cn(C2OC(CO)C(O)C2O)c(=O)[nH]c1=O (stereo not given),244 to 249
6,CSc1cc([N+](=O)[O-])ccc1C(N)=O,202 to 204
7,N=C(NCC1(c2ccc(Cl)cc2)CC1)NN=Cc1c(Cl)cccc1Cl,126 to 128
8,COc1cccc(C(C[N+](=O)[O-])SC(=S)N(C)C)c1OC(C)=O (stereo not given),124 to 126
9,CCCCCCCCCCCCCCCCCCC(N)CN (stereo not given),98 to 101
10,CC(CCCO[Si](C)(C)C(C)(C)C)C1CCC2C3CC=C4C(C)(C)C(O[Si](C)(C)C(C)(C)C)CCC4(C)C3CCC12C (stereo not given),161 to 162
11,N#Cc1ccc(OCc2ccc(F)cc2)cc1,82 to 83
12,NC(=O)N(O)CC1CCCCC1,143 to 144
13,OCc1ccc(-c2ccc(O)cc2)c(-c2ccc(O)cc2)c1,214
14,NC1=NCC(COc2cccc(Cl)c2)O1 (stereo not given),128
15,COC(=O)C1=C(O)c2sc3ccccc3c2S(=O)(=O)N1Cc1ccc(OC)cc1,163 to 164
16,O=C1C=CC(=O)N1c1cccc(Oc2cccc(Oc3cccc(N4C(=O)C=CC4=O)c3)c2)c1,138 to 140
17,CCOC(=O)c1ccc(-c2ccc(-c3ccc(C(F)(F)F)cc3)s2)cc1,203 to 204
18,O=C(c1ccc(Br)cc1)c1ccc(N2CCOCC2)cc1,178 to 179
19,O=C(Nc1cccc(O)c1)C(F)(F)F,133 to 135
20,NC(=S)c1nccn1Cc1cccs1,152 to 153
21,CC1C(=O)N(CC(=O)CCc2ccccc2)C1S(=O)Cc1ccccc1 (stereo not given),87 to 94
22,O=c1[nH]c2ccc(Cl)cc2c(=O)n1CCCCN1CC=C(c2ccccc2)CC1,214 to 222

# Next, values leading:
row,melting point [°C],Compound
1,106 to 112,O=c1ccoc2cccc(OCCCN3CCN(c4ccccc4)CC3)c12
2,108 to 109,O=C(Oc1ccc(Cl)cc1)C1CCCc2ccc([N+](=O)[O-])cc21 (stereo not given)
3,128 to 129,CC(=O)CN1CCc2c(c(=O)oc3cc(C)ccc23)C1
4,114 to 120,CC(=O)N(C)c1cccc(C2=CCNc3c(C#N)cnn32)c1
5,153 to 154,CN(C[PH](=O)O)c1cc(Oc2ccc(C(F)(F)F)cc2Cl)ccc1[N+](=O)[O-]
6,121 to 122,CCOC(=O)c1c(NC=CC(=O)C(C)C)sc(-c2ccc(OC)cc2)c1C
7,95 to 97,CC(C)Oc1cc(-n2nc(C(F)F)n(C)c2=O)c(Cl)cc1Cl
8,244 to 245,CC(C)c1ccc2cc(C(=O)Nc3ccc(OCC(C)(C)C)c(C#N)c3)sc2n1
9,192 to 193,CCCCc1csc2ccc3[nH]c4c(c3c12)CN(C)CC4
10,88 to 90,O=Cc1ccc(OC(F)F)c([N+](=O)[O-])c1
11,86,COc1ccc(Nc2ccnc(Nc3cc(OC)c(OC)c(OC)c3)n2)cc1OC
12,162,CC1(C)CC(=O)C(C(=O)c2ccc(Cl)cc2[N+](=O)[O-])C(=O)N1 (stereo not given)
13,77 to 79,COC1OC(=O)c2c(O)cccc21 (stereo not given)
14,122 to 123,CC(C)c1ccc(N(Cc2ccc(Cl)cc2)C(=O)C2CCCc3ccccc32)cc1 (stereo not given)
15,115 to 117,CC[C@H](CS[C@@H](CCc1ccccc1C(C)(C)O)c1cccc(C=Cc2ccc3ccc(Cl)cc3n2)c1)C(=O)O
16,133 to 135,O=C(Nc1nc2ccc(OCc3c(Cl)cccc3Cl)cc2[nH]1)C1CC1
17,100 to 101,CCC(CC)c1nn(-c2ccc(C(F)(F)F)cn2)cc1CCCOc1c(CC(=O)O)cccc1OC
18,163 to 165,CC(=O)NC[C@H]1CN(c2ccc(N3CCC(COc4ccon4)CC3)c(F)c2)C(=O)O1
19,230 to 240,CNC[C@@H]1CN(c2nc3c(cc2F)c(=O)c(C(=O)O)cn3C2CC2)C[C@@H]1F (relative stereo)
20,132 to 134,O=C1c2cc(Cl)c(Cl)cc2C(=O)N1CCN1CCC(c2noc3cc(F)ccc23)CC1
21,123 to 125,CCCCc1c(C(=O)O)ccc2ccc(OC)cc12
22,188 to 190,CN1C(=O)C(C(=O)Nc2ccccc2)c2cc3ccccc3cc2S1(=O)=O (stereo not given)
23,115 to 117,COC(=O)c1cccc(-c2nc(C(Cl)(Cl)Cl)nc(C(Cl)(Cl)Cl)n2)c1
24,117 to 119,COc1ccc(N(C)CCN(C)CCCN2CCc3cc(OC)c(OC)cc3NC2=O)cc1OC
25,91 to 93,CCOC(=O)c1cnc2c(c(C)nn2CC)c1O
